This note sets out measurements from patent US20250163057A1, “DCN-1 MODULATING COMPOUNDS AND METHODS OF USE THEREOF” (Cellarity, Inc., priority 2023, published 2025).

Like-named read-outs stand apart in the source and are kept apart here. A value given as a limit tells only on which side of the number the result lay.

Assay [1] deals with Cullin-3 (CUL3) neddylation. Kind of assay: AlphaLISA assay for Cullin-3 (CUL3) neddylation in TF 1 cells. It is filed as cell-based. Particulars: 3 hours treatment; for IC50: Homo sapiens. The method, boiled down: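 TF 1 cells in unsupplemented IMDM treated with compound concentrations for 3 h, then lysed. CUL3 neddylation detected by AlphaLISA (biotinylated anti-NEDD8, anti-CUL3 acceptor beads overnight, streptavidin donor beads 1 h); normalized to vehicle (0%) and 1 μM DI-1548 (100%), IC50 from Hill fits.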
In general terms: In Alpha technology, singlet oxygen from a donor bead excites a nearby acceptor bead.

The target in assay [2] is DCN1 (DCUND1) protein PONY domain (Homo sapiens (Human), UniProt Q96GG9). Put plainly: TR-FRET assay, DCN1 binding with FAM-labeled probe. Put shortly:
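First, the E. coli-derived PONY domain was biotinylated and paired with streptavidin Tb cryptate. Compounds in 0.1% DMSO were then added to DCN1 and FAM-probe (5 nM/20 nM, or 0.31 nM/900 nM total with 800 nM unlabelled) in TritonX, 200 mM NaCl buffer. Finally, TR-FRET ratios were recorded at 1, 5 and 24 hrs.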

The mark [3] stands for this setting: 24 hr after treatment with compound, read-out: TR FRET IC50 24 hr.
[4] abbreviates: read-out: TR FRET IC50 1 hr, 1 hr after treatment with compound.
Where [5] appears, read: TR FRET IC50 1 hr (nM), 1 hr after treatment with compound.

The IC50 is the concentration that inhibits the measured activity by half.

DCN1 (DCUND1) protein PONY domain, sequence (Q96GG9 60-248): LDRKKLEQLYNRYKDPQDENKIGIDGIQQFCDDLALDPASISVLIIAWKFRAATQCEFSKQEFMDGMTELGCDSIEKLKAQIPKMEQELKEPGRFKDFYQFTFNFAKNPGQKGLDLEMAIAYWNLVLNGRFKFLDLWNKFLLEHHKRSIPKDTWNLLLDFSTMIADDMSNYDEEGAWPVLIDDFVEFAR

`CCN1C(=O)[C@@H](NC(=O)c2cccc(C(F)(F)F)c2)[C@@H](c2ccc(F)cc2)c2c(CN(C)C/C=C/C(=O)N(C)C)nn(-c3ccccc3)c21` [Compound I-638]: the IC50 in assay [1] (TF-1, 3 h) was above 1 µM; in assay [2] (setting [3]), at most 200 nM; in assay [2] (setting [4]), at most 200 nM.

For `CCN1C(=O)[C@@](C)(NC(=O)c2cccc(C(F)(F)F)c2)[C@@H](C2CC2)c2c(C(=O)N3[C@H](C#N)C[C@H]4C[C@H]43)nn(C3CCOCC3)c21` [Compound I-516, N-((4S,5S)-3-((1R,3S,5R)-3-cyano-2-azabicyclo[3.1.0]hexane-2-carbonyl)-4-cyclopropyl-7-ethyl-5-methyl-6-oxo-1-(tetrahydro-2H-pyran-4-yl)-4,5,6,7-tetrahydro-1H-pyrazolo[3,4-b]pyridin-5-yl)-3-(trifluoromethyl)benzamide], the IC50 in assay [1] (TF-1, 3 h) is at most 0.1 µM; in assay [2] (setting [3]), at most 200 nM; in assay [2] (setting [4]) it was at most 200 nM.

For the molecule `CCN1C(=O)[C@@H](NC(=O)c2cccc(C(F)(F)F)c2)[C@@H](C2CC2)c2c(C(=O)N3CC(=O)C[C@H]3C#N)nn(C3CCOCC3)c21` [Compound I-626, N-((4S,5S)-3-((S)-2-cyano-4-oxopyrrolidine-1-carbonyl)-4-cyclopropyl-7-ethyl-6-oxo-1-(tetrahydro-2H-pyran-4-yl)-4,5,6,7-tetrahydro-1H-pyrazolo[3,4-b]pyridin-5-yl)-3-(trifluoromethyl)benzamide], the IC50 in assay [1] (TF-1, 3 h) was at most 0.1 µM; in assay [2] (setting [3]) it was at most 200 nM; in assay [2] (setting [4]) it was at most 200 nM.

In the case of `CCN1C(=O)[C@@H](NC(=O)c2cccc(C(F)(F)F)c2)[C@@H](C2CC2)c2c(C(=O)N3CCN(C)C[C@@H]3C#N)nn(C3CCOCC3)c21` (single isomer, unassigned) [Compound I-431], the IC50 in assay [1] (TF-1, 3 h) is 0.1 to 1 µM; in assay [2] (setting [3]), 200 to 1000 nM; in assay [2] (setting [5]), 200 to 1000 nM.

Consider `CCN1C(=O)[C@@H](NC(=O)c2ccc3ncoc3c2)[C@@H](C2CC2)c2c(C(=O)N3[C@H](C#N)C[C@H]4C[C@H]43)nn(C3CCOCC3)c21` [Compound I-564], for which the IC50 in assay [1] (TF-1, 3 h) is above 1 µM; in assay [2] (setting [3]), 1000 to 3000 nM; in assay [2] (setting [5]) it was 1000 to 3000 nM.

`CCN1C(=O)[C@@H](NC(=O)c2cccc3[nH]cnc23)[C@@H](C2CC2)c2c(C(=O)N3[C@H](C#N)C[C@H]4C[C@H]43)nn(C3CCOCC3)c21` [Compound I-446]: the IC50 was above 1 µM in assay [1] (TF-1, 3 h); 1000 to 3000 nM in assay [2] (setting [3]); 1000 to 3000 nM in assay [2] (setting [5]).

For `CCN1C(=O)[C@@H](NC(=O)c2ccc3ccoc3c2)[C@@H](C2CC2)c2c(C(=O)N3[C@H](C#N)C[C@H]4C[C@H]43)nn(C3CCOCC3)c21` [Compound I-526], the IC50 in assay [1] is at most 0.1 µM; in assay [2] (setting [3]), at most 200 nM; in assay [2] (setting [4]), at most 200 nM.

`CCN1C(=O)[C@@H](NC(=O)c2cccc(C(F)(F)F)c2)[C@@H](C2CC2)c2c(C(=O)N(CC#N)C3CC3)nn(-c3ccccc3)c21` [Compound I-619]: the IC50 in assay [1] (TF-1, 3 h) is 0.1 to 1 µM; in assay [2] (setting [3]) it was at most 200 nM; in assay [2] (setting [5]) it was 1000 to 3000 nM.

In the case of `CCN1C(=O)[C@H](NC(=O)c2cccc(C(F)(F)F)c2)[C@H](c2ccc(F)cc2)c2c(C(=O)N3CCC[C@H]3C#N)nn(-c3cccc(OCCCN4CCN(C5COC5)CC4)c3)c21` [Compound I-681], the IC50 was above 1 µM in assay [1] (TF-1, 3 h); 1000 to 3000 nM in assay [2] (setting [3]); 1000 to 3000 nM in assay [2] (setting [5]).

In the case of `CCN1C(=O)[C@@H](NC(=O)c2cccc(C(F)(F)F)c2)[C@@H](C2CCCC2)c2c(C(=O)N(C)[C@@H](C)C#N)nn(C3CCOCC3)c21` [Compound I-559], the IC50 is at most 0.1 µM in assay [1] (TF-1, 3 h); at most 200 nM in assay [2] (setting [3]); 200 to 1000 nM in assay [2] (setting [5]).

With `CCN1C(=O)[C@@H](NC(=O)c2cccc3[nH]ncc23)[C@@H](C2CC2)c2c(C(=O)N3[C@H](C#N)C[C@H]4C[C@H]43)nn(C3CCOCC3)c21` [Compound I-602], the IC50 in assay [1] (TF-1, 3 h) was above 1 µM; in assay [2] (setting [3]), 1000 to 3000 nM; in assay [2] (setting [5]), 1000 to 3000 nM.

For `CCN1C(=O)[C@@H](NC(=O)c2ccc3snnc3c2)[C@@H](C2CC2)c2c(C(=O)N3[C@H](C#N)C[C@H]4C[C@H]43)nn(C3CCOCC3)c21` [Compound I-706], the IC50 was at most 0.1 µM in assay [1] (TF-1, 3 h); 200 to 1000 nM in assay [2] (setting [3]); 1000 to 3000 nM in assay [2] (setting [5]).

For the molecule `CCN1C(=O)[C@@H](NC(=O)c2cccc(C(F)(F)F)c2)[C@@H](c2ccccn2)c2c([C@@H](C)NC#N)nn(-c3ccccc3)c21` (mixture of isomers) [Compound I-680], the IC50 in assay [1] (TF-1, 3 h) was at most 0.1 µM; in assay [2] (setting [3]), at most 200 nM; in assay [2] (setting [5]), 200 to 1000 nM.

With `CCN1C(=O)[C@@H](NC(=O)c2cccc(C(F)(F)F)c2)[C@@H](c2ccc(F)cn2)c2c(C(=O)N3CCC[C@H]3C#N)nn(-c3ccccc3)c21` (mixture of isomers) [Compound I-409], the IC50 in assay [1] (TF-1, 3 h) was 0.1 to 1 µM; in assay [2] (setting [3]), at most 200 nM; in assay [2] (setting [5]), 1000 to 3000 nM.

On to `CCN1C(=O)[C@@H](NC(=O)c2cccc(C(F)(F)F)c2)[C@@H](C2CC2)c2c(C(=O)N3CCC[C@H]3C#N)nn(-c3ccccc3)c21` [Compound I-686], for which the “Neddylation IC50 (nM)” value in assay [1] is listed as “+ +”. Also, the concentration for half-maximal inhibition (IC50) in assay [2] (setting [3]) was at most 200 nM; in assay [2] (setting [5]), 1000 to 3000 nM.

`CCN(CC#N)C(=O)c1nn(-c2ccccc2)c2c1[C@@H](c1ccc(F)cc1)[C@@H](NC(=O)c1cccc(C(F)(F)F)c1)C(=O)N2CC` (stereo in doubt) [Compound I-531]: the IC50 in assay [1] (TF-1, 3 h) is 0.1 to 1 µM; in assay [2] (setting [3]) it was at most 200 nM; in assay [2] (setting [5]), 1000 to 3000 nM.

Consider `CCN1C(=O)[C@@H](NC(=O)c2nccc(C(F)(F)F)n2)[C@H](c2ccc(F)cc2)c2c(CNC(=O)/C=C/C(=O)N(C)C)nn(-c3ccccc3)c21` [Compound I-460], for which the IC50 in assay [1] (TF-1, 3 h) was above 1 µM; in assay [2] (setting [3]), 200 to 1000 nM; in assay [2] (setting [5]), 200 to 1000 nM.

For the molecule `CCN1C(=O)[C@@H](NC(=O)c2cccc(C(F)(F)F)c2)[C@@H](c2ccc(F)cc2)c2c(C(=O)N3CC[C@@H]3C#N)nn(-c3ccccc3)c21` [Compound I-570], the IC50 in assay [1] (TF-1, 3 h) was 0.1 to 1 µM; in assay [2] (setting [3]) it was 200 to 1000 nM; in assay [2] (setting [5]) it was 1000 to 3000 nM.

Regarding `CCN1C(=O)[C@@H](NC(=O)c2cccc(C(F)(F)F)c2)[C@@H](c2ccc(F)cc2)c2c(CN(C)C/C=C/C(=O)N3CCCC3)nn(-c3ccccc3)c21` [Compound I-606], the IC50 was above 1 µM in assay [1] (TF-1, 3 h); 200 to 1000 nM in assay [2] (setting [3]); 200 to 1000 nM in assay [2] (setting [5]).

For `CCN1C(=O)[C@@H](NC(=O)c2cccc(C(F)(F)F)c2)[C@@H](C2CC2)c2c(C(=O)N3CC[C@@H](NC)[C@@H]3C#N)nn(C3CCOCC3)c21` (relative stereo) [Compound I-421, N-((4S,5S)-3-((2R*,3R*)-2-cyano-3-(methylamino)pyrrolidine-1-carbonyl)-4-cyclopropyl-7-ethyl-6-oxo-1-(tetrahydro-2H-pyran-4-yl)-4,5,6,7-tetrahydro-1H-pyrazolo[3,4-b]pyridin-5-yl)-3-(trifluoromethyl)benzamide], the IC50 in assay [1] (TF-1, 3 h) is 0.1 to 1 µM; in assay [2] (setting [3]) it was at most 200 nM; in assay [2] (setting [5]), 1000 to 3000 nM.

Turning to `CCN1C(=O)[C@@H](NC(=O)c2cccc(C(F)(F)F)c2)[C@@H](c2ccc(F)cc2)c2c(CNC/C=C/C(=O)N(C)C)nn(-c3ccccc3)c21` [Compound I-490], the 50% inhibitory concentration (IC50) in assay [1] (TF-1, 3 h) is 0.1 to 1 µM; in assay [2] (setting [3]), at most 200 nM; in assay [2] (setting [4]) it was at most 200 nM.
